# Residues, ends and D or L forms follow the SMILES beside them. *: point of attachment. Boc = CC(C)(C)OC(=O)*
# Details: not given
row,SMILES,logP
1,Nc1cc([N+](=O)[O-])cc([N+](=O)[O-])c1,1.89
2,Cc1ccc(C)[nH]1,1.47
3,Clc1nc(Cl)nc(Nc2ccccc2Cl)n1,3
4,O=C1CC(c2ccc(C(F)(F)F)cc2)Cc2c1c(=O)c1cc(Cl)ccc1n2O (stereo not given),3.46
5,CCOC(=O)NNc1ccccc1,1.22
6,Cc1nn(C)c(OCC(=O)c2ccccc2)c1C(=O)c1ccc(Cl)cc1Cl,3.69
7,Nc1nc2cc(Cl)ccc2[nH]1,1.88
8,FC(F)(F)c1ccccc1Cl,3.53
9,COC(=O)CCCCC(=O)OC,1.03
10,Cc1ncc[nH]1,0.24
11,CCCCC(NC(Cc1ccccc1)C(=O)N1CCC(OCOC)CC1)C(=O)NC(CC1CCCCC1)C(O)CC(C(=O)NCCNC(N)=NC#N)C(C)C (stereo not given),4.14
12,BrCCCBr,2.37
13,O=[N+]([O-])c1ccccc1CO,1.24
14,CC1=C(N2CC2)C(=O)c2ccc(CCOC(N)=O)c(N3CC3)c2C1=O,0.16
15,C#CCN(CC#C)CC#C,1.27
16,Cc1cccc(C)c1N,1.84
17,COC(=O)C(=O)OC,-0.17
18,COP(=S)(OC)SCC(=O)N(C)C=O,1.48
19,COc1ccc(CC#N)cc1OC,1.15
20,COP(=O)(OC)OC(C)=CC(=O)N(C)C,0
21,Clc1cc(Cl)c2cc(Cl)ccc2c1,5.35
22,FN(F)C(c1ccccc1)(c1ccccc1)c1ccccc1,3.73

row,SMILES,logP
1,O=C(O)Cc1ccc(N2Cc3ccccc3C2=O)cc1,2.9
2,O=C1C=C(NCCO)C(=O)c2ccccc21,1.23
3,OCC=CCO,-0.81
4,Nc1cc(Cl)c(Cl)cc1N,2
5,CCCCNC(=S)N(CCCC)CCCC,3.68
6,COC(=O)CC(=O)OC,-0.05
7,CC#CC#CC,2.24
8,CC(=O)C(C)C,0.84
9,CC(C(=O)O)c1ccc(N2C(=O)C3C4C=CCC3(C4)C2=O)cc1 (stereo not given),2.31
10,c1ccc(N2CCCC2)cc1,3.56
11,NC(=O)CCOc1ccccc1,0.8
12,Cn1c(N)nc2ccc(Cl)cc21,2.01
13,COC(=O)Nc1c(C(C)C)cccc1C(C)C,2.2
14,Cn1cccc1C=NNC(=O)Nc1ccccc1,2.71
15,S=C(N/N=C/c1ccc[nH]1)Nc1ccccc1,3.73
16,c1ccc(P(c2ccccc2)c2ccccc2)cc1,5.69
17,O=C1C=C(N2CCCC2)C(=O)c2ccccc21,2.89
18,CC(C)(C)NCC(O)COCCCc1ccccc1 (stereo not given),2.58
19,c1cnc2nc[nH]c2c1,0.3
20,CSC(=S)Nc1ccc(Cl)c(Cl)c1,4.23
21,CCOc1ccc(C(C)(C)COCc2cccc(Oc3ccccc3)c2)cc1,7.05
22,O=C1CC(Sc2ccncc2)N1 (stereo not given),0.61

row,SMILES,logP
1,CC(C)(C)n1ccnc1C=NO,0.85
2,CCCCCCCCCCCCCCc1cccc(N2C(N)=NC(N)=NC2(C)C)c1,3.64
3,CCN(CC)C(=O)COC(=O)[C@@H](C)c1ccc2cc(OC)ccc2c1,3.32
4,CC(C)(C)C(=O)c1ccccc1,3
5,O=C1C(=O)c2ccccc2-c2ccccc21,2.52
6,CC1CN1C1=CC(=O)C(N2CC2C)=CC1=O (stereo not given),1.07
7,O/N=C/c1ccncc1,0.77
8,OC1CCCCCCCCCCC1,3.75
9,COc1ccccc1C(C)=O,1.82
10,CN(C)/C=C/[N+](=O)[O-],-0.8
11,O=C(O)COc1cc(F)cc(I)c1,2.42
12,C/C=C/C(C)=O,0.52
13,O=C(N/N=C/c1ccc[nH]1)Nc1ccccc1,2.96
14,Clc1c(Cl)c(Cl)c2ccccc2c1Cl,5.75
15,Cc1ccccc1COC1CC2(C(C)C)CCC1(C)O2 (stereo not given),3.83
16,CN(C)c1ccc2c(c1)C(=O)N(S(C)(=O)=O)C2=O,1.65
17,NC(=O)Cc1cccs1,0.33
18,CCN(C(=O)SCc1ccccc1)C(C)C(C)C (stereo not given),4.6
19,CC(=O)Nc1nccs1,0.76
20,CN(C)O,-1.15
21,CC(C(=O)O)c1ccc(N2CC3CCCCC3C2=O)cc1 (stereo not given),3.07
22,COc1ccc2c(c1)nc(N)n2C,0.87

row,SMILES,logP
1,CC(C)C(C)C,3.42
2,CS(=O)(=O)N(c1ccccc1[N+](=O)[O-])S(C)(=O)=O,0.81
3,CN(C)c1ccc(C#N)cc1,2.2
4,Clc1cc(Cl)c2c(Cl)ccc(Cl)c2c1,5.76
5,COC(=O)c1ccccc1N,1.88
6,C[C@H](NC(=O)N(CCCl)N=O)C(=O)O,0.78
7,CC(O)CNC(=O)C(F)(F)Cn1cnc([N+](=O)[O-])n1 (stereo not given),-0.48
8,CC1C=CCN1 (stereo not given),1.87
9,Fc1cc(F)c(F)c(F)c1F,2.53
10,O=[N+]([O-])c1ccc(/C=N/O)cc1,1.95
11,CCCCCCn1cc(C)c(=O)[nH]c1=O,1.93
12,CCCCOCN(C(=O)CCl)c1c(CC)cccc1CC,4.5
13,COC(=O)/C=C/C(=O)OC,0.74
14,COc1ccc2[nH]c(N)nc2c1,0.57
15,C[C@]12CCC(=O)C=C1CC[C@@H]1[C@@H]2CC[C@@]2(C)[C@H]1CC[C@]2(O)[C@H](O)CO,2
16,C1COC1,-0.14
17,CC(C(=O)O)c1ccc(N2C(=O)C3CCCCC3C2O)cc1 (stereo not given),2.95
18,CC(C)C(C)OCc1cn(C)c(C=NO)n1 (stereo not given),2.53
19,O/N=C/c1ccc(Cl)cc1,2.67
20,CCCCn1cnc2c(NC(C)=O)ncnc21,0.55
21,O=C1C=C(N2CCCC2)C(=O)C=C1N1CCCC1,1.97
22,c1ccc(-c2cc3ccccc3[nH]2)nc1,3.33

row,SMILES,logP
1,CC(C)NC(C)C,1.4
2,COC(=O)CC(C)C,1.82
3,ClCC#CCCl,2.01
4,CCCCn1cc(C)c(=O)[nH]c1=O,0.91
5,CC1(C)CCC(C)(C)O1,2.06
6,Cc1ccc2[nH]c(N)nc2c1,1.11
7,Cc1ccc(O)c(-n2nc3ccccc3n2)c1,4.31
8,N#Cc1cccc(F)c1,1.47
9,CC(C(=O)O)c1ccc(N2C(=O)C3CCCCC3C2=O)cc1 (stereo not given),2.37
10,COCC(O)Cn1cc([N+](=O)[O-])nn1 (stereo not given),-0.36
11,Nc1nc(=O)cc[nH]1,-0.99
12,O=C(Nc1ccccc1)Nc1ccccc1,3
13,CN(C)C1=CC(=O)c2ccccc2C1=O,1.9
14,C1=COCCC1,0.69
15,O=C1c2ccccc2C(=O)N1c1ccccc1,2.4
16,COc1ccc(C(C)=O)c(OC)c1OC,1.63
17,Cc1c(Cl)ccc(OC(C)C(=O)Nc2ccccc2)c1Cl (stereo not given),4.8
18,NC(=S)N1CCCCC1,0.73
19,O=C1C=CC(=O)C(Cl)=C1,0.84

# Same assay, conditions: pH 1.0
row,SMILES,logD
1,O=C(O)CCCOc1ccc(Cl)cc1Cl,3.53
2,CCOc1ccc(C(=O)O)cc1OCC,2.37
3,CC(C)(C)C#N,1.08
4,O=C(O)/C=C/c1ccc([N+](=O)[O-])cc1,2.12
5,CC(C)(C)OC(=O)N[C@@H](Cc1ccccc1)C(=O)N[C@@H](Cc1ccc(O)cc1)C(=O)O (Boc-Phe-Tyr-OH),2.79
6,O=C(O)c1c2ccccc2cc2ccccc12,3.85

# Same assay, conditions: pH 2.1
row,SMILES,logD
1,CCCCCCOc1ccc(S(N)(=O)=O)cc1,2.93

# Same assay, conditions: pH 3.5
row,SMILES,logD
1,C1CCC(Cc2nnn[nH]2)CC1,1.59

# Same assay, conditions: pH 4.0
row,SMILES,logD
1,CC(=NNc1c([N+](=O)[O-])cc(C(F)(F)F)cc1[N+](=O)[O-])C(F)(F)F,3
2,O=[N+]([O-])c1cc(C(F)(F)F)cc([N+](=O)[O-])c1NN=C(C(F)(F)F)C(F)(F)F,3.6
3,O=[N+]([O-])c1ccc(NN=C(C(F)(F)F)C(F)(F)F)c([N+](=O)[O-])c1,3.8
4,N#Cc1ccc(NN=C(C(F)(F)F)C(F)(F)F)c([N+](=O)[O-])c1,3.4
5,CC(C)=NNc1c([N+](=O)[O-])cc(C(F)(F)F)cc1[N+](=O)[O-],3.2

# Same assay, conditions: pH 4.2
row,SMILES,logD
1,NC(=O)c1nc[nH]c1N=NN(CCO)CCO,-1.04

# Same assay, conditions: pH 5.0
row,SMILES,logD
1,Sc1nc(-c2ccccc2)ns1,2.13

# Same assay, conditions: pH 7.0
row,SMILES,logD
1,CNc1ncnc2c1ncn2[C@H]1C[C@H](O)[C@@H](CO)O1,-0.19
2,COc1ccc2c(c1OC)-c1ccc(OC)c(=O)cc1[C@@H](NC(C)=O)CC2,1.02
3,Nc1nc(=O)n([C@H]2CC[C@@H](CO)O2)cc1Br,-0.48
4,CCOC(=O)N[C@H]1CCc2cc(OC)c(OC)c(OC)c2-c2ccc(OC)c(=O)cc21,1.3
5,CCCCC#N,1.12

# Same assay, conditions: pH 7.4
row,SMILES,logD
1,Cn1c([N+](=O)[O-])cnc1-c1ccc(F)cc1,1.83
2,CCc1ccc([N+](=O)[O-])cc1,3.03
3,O=C1Nc2ccccc2C1=O,0.83
4,Fc1cccc2cccnc12,2.19
5,OCc1ccc2cccnc2c1,1.29
6,CCN(CCO)c1ccccc1,2.1
7,Nc1ccc(Sc2ccc(N)cc2)cc1,2.18
8,CN1C(=O)CN=C(c2ccccc2C(F)(F)F)c2cc([N+](=O)[O-])ccc21,2.45
9,c1csc(C23CCCN2CCO3)c1 (stereo not given),1.05
10,O=C(Cn1ccnc1[N+](=O)[O-])NCc1ccccc1,0.85
11,C#CCn1ncc2cc([N+](=O)[O-])ccc21,0.52
12,CN1C(=O)CN=C(c2ccccc2)c2cc(C#N)ccc21,1.8
13,Cn1c([N+](=O)[O-])cnc1-c1ccc(N)cc1,1.06
14,OC[C@H]1O[C@@H](n2cnc3c2NC=NC[C@H]3O)C[C@@H]1O,-2.09
15,CNc1nc2c3cccnc3ccc2n1C,1.82
16,CCCCCc1ccc(N)cc1,3.39
17,CCc1ncc([N+](=O)[O-])n1C,0.62
18,Cn1c(N)nc2ncc(-c3ccccc3)cc21,2.23
19,CC(=O)Oc1cccc2cccnc12,2.03
20,Cn1c([N+](=O)[O-])cnc1COc1ccc(Cl)cc1,1.8

# Same assay, conditions: pH 9.8
row,SMILES,logD
1,c1ccc(C2CN3CCSC3=N2)cc1 (stereo not given),1.84

# Same assay, conditions: pH 11.0
row,SMILES,logD
1,C[C@@H]([C@H](O)c1ccccc1)N(C)C,1.7

# Same assay, conditions: pH 13.0
row,SMILES,logD
1,NCCCN1CCN(CCCN)CC1,-1.43
2,CC(C)NC(C)(C)C,1.56
3,NCCCN,-1.43
4,CCOC(OCC)OCC,1.2
5,C[C@@H]1CCC[C@H](C)N1,1.53
6,N#CCN,-1.37
7,CC(C)(C)N(CC(O)COc1ccccc1)CC(O)COc1ccccc1 (stereo not given),3.99
8,CCNCCNCC,0.21
9,CC(=O)c1ccc(N2CCCCC2)cc1,3.13
10,Cc1ccc(Cc2cnc(N)nc2N)c(C)c1N,1.12
11,N=C(N)c1ccccc1,0.65

# Reference: the SangsterLogP compilation
